This note sets out measurements from patent US6761884B1, “Vectors including foreign genes and negative selective markers” (The United States of America as represented by the …, priority 1991, dated 2004).

The test system of test [1] is untransduced WP4 cells. Nature of the test: Ganciclovir killing of untransduced WP4 cells, methylene blue staining. In kind it is cell-based, murine. The conditions noted are these: 24-well plate, ganciclovir 0.01-100 uM, stained at 5 to 7 days. The protocol:
This example employs a clone (WP4) (Asher et al., J. Inmunol, Vol. 146, pg. 3227 (1991)) of a murine tumor cell line MCA205 (Wexler et al., J. Natl. Canc. Inst., Vol. 63, pg. 1393 (1979)) for assessing the utility of the HSV-TK gene in a “suicide” system.
Transduced “selected” cells are then plated in 24-well tissue culture plate at 1-2.5×10^4 cells per well. After 24 hrs. of culture, ganciclovir is added in concentrations ranging from 0.01-100 uM, the cells are monitored for growth and all wells are stained in methylene blue when the control wells (no ganciclovir added) are confluent (at 5 to 7 days). Complete killing of transduced selected cells is observed at concentrations from 0.1 to 1.0 uM of ganciclovir, while untransduced cells are killed at concentrations of 100 uM or greater.

For test [2], the system named is WP4 tumor cells containing the HSV-TK gene. Nature of the test: Subcutaneous tumors from WP4 cells containing the HSV-TK gene in mice, ganciclovir treatment. The class given is in vivo, C57BL/6 or BNX mice. On the procedure:
(§1) WP4 tumor cells form tumors in C57BL/6 or BNX mice when injected subcutaneously. The number of cells required for tumor formation will vary depending of the strain of mouse used. C57BL/6 mice require 5×10^6-1×10^7 cells for tumor formation in 10-14 days. BNX mice require 1-5×10^4 cells for tumor formation in 10-14 days. Tumor cells are suspended in PBS and injected subcutaneously into the hind flank in a 0.5 ml volume. Five to ten days after tumor inoculation, ganciclovir is administered intraperitoneally twice daily for 5 days. A 2-5 mg/ml solution of ganciclovir prepared in serum-free medium (RPMI 1640, DMEM, or other) is used to achieve a dose of 125-150 mg/kg. Animals are monitored and tumor measurements made twice weekly.
(§2) At the time of ganciclovir administration, tumors are palpable, but unmeasurable. Tumors arising from untransduced WP4 cells reach a size of 2.0-2.5 cm^3 in 40-45 days with or without ganciclovir administration. Tumor cells containing the HSV-TK gene initially form palpable tumors then regress completely and become undetectable within 10-20 days after the start of ganciclovir treatment. Complete, long term tumor ablation is observed in 60-80% of mice having received selected cells plus ganciclovir therapy.

Test [3] has as its system untransduced WP4 tumor cells. The test can be described thus: Subcutaneous tumors from untransduced WP4 cells in mice, ganciclovir treatment. The class given is in vivo, C57BL/6 or BNX mice. Conditions: in 40-45 days, with or without ganciclovir administration (125-150 mg/kg i.p. twice daily for 5 days). The protocol: as §1, §2

Regarding `Nc1nc(O)c2ncn(COC(CO)CO)c2n1` [ganciclovir], in test [1], the “Concentration at which untransduced cells are killed” value was no less than 100 µM. Also, the “Time after start of ganciclovir treatment by which tumors regress completely and become undetectable” value in test [2] (125-150 mg/kg intraperitoneally twice daily for 5 days, started 5-10 days after tumor inoculation) fell in the range of 10 to 20 days. Further, in test [2] (mice having received selected cells plus ganciclovir therapy, 125-150 mg/kg i.p. twice daily for 5 days), the “Mice with complete, long term tumor ablation” value was 60-80%. For the same molecule, the “Tumor size reached by tumors arising from untransduced WP4 cells” value in test [3] is on record as 2.0-2.5 cm^3.
